Test results: patent US20160025704A1, “METHODS FOR IDENTIFYING NEUROPROTECTIVE PKC ACTIVATORS” (priority 2013, published 2016)
Where two headings read alike, the source gives them in different places.

Tests used:
[1] = tested on: TA 100 cells & TA 1535 cells / TA 98 cells; assay: AMES testing, overall result (mutagenic potential); type: cell-based
Text: The AMES test is a rapid screening of the mutagenic potential of chemical compounds. […] Between 50% and 70% of all known carcinogens test positive in the AMES test.

ECE = ECE activity in SH-SY5Y cells (fluorometric); type: cell-based; details: compared to ethanol alone
Protocol: Aβ can be degraded in vivo by a number of enzymes, including insulin degrading enzyme (insulysin), neprilysin, and ECE (FIG. 12). Because PKC-ε overexpression has been reported to activate ECE (Choi et al., Proc. Natl. Acad. Sci. USA. 2006; 103: 8215-20), the effect of PKC activators on ECE was analyzed. Candidate PKC activators were added to either SH-SY5Y cells (Bryo—0.27 nM, DCP-LA—1 μM, and DHA-CP6 1 μM) or cultured neurons (DHA-CP6—1 μM, EPA-CP5— 1 μM, and AA-CP4— 1 μM), and grown on either 12- or 24-well plates. After various time periods, the cells were collected and ECE activity was measured fluorometrically. Results are shown below in FIG. 13. *, p<0.05; **, p<0.001.
PKCε overexpression has been reported to activate endothelin converting enzyme (ECE). The effect of PKC activators on ECE was measured here with Bryostatin, DCP-LA, and DHA-CP6. […] Protocol: Bryostatin (0.27 nM), DCP-LA (1 μM), DHACP6 (1 μM), EPA-CP5 (1 μM), AA-CP4 (1 μM), or ethanol alone were added to SH-SYSY cells growing on 12- or 24-well plates. After various periods of time, the cells were collected and ECE activity was measured fluorometrically as showing in FIG. 34 below (* p<0.05, ** p<0.001).

5XFAD mice = assay: Water maze learning and memory and amyloid deposition in 5XFAD mice; type: in vivo; details: 2 times/week from 2 months old
Text: Protocol: 5-month old 5XFAD mice were trained for 5-6 days (3-4 trials/day) to find a hidden platform (9 cm diameter), submerged about 2 cm below the water surface in the a maze pool with 114 cm diameter. After the training trials, a probe trial (a quadrant test or memory retention trial) was given with the platform removed to assess memory retention for its location by the distance the mouse moved in the quadrants. […] Non-treated groups (wild-type and transgenic (5×) mice) received the same vehicle volumes, mechanism of delivery, and frequency of administration as the treated groups

PKC-ε = target: T1, PKC-ε (Homo sapiens, UniProt Q02156); assay: Activation of purified PKC isozymes; type: biochemical
T1 sequence (Q02156 1-737): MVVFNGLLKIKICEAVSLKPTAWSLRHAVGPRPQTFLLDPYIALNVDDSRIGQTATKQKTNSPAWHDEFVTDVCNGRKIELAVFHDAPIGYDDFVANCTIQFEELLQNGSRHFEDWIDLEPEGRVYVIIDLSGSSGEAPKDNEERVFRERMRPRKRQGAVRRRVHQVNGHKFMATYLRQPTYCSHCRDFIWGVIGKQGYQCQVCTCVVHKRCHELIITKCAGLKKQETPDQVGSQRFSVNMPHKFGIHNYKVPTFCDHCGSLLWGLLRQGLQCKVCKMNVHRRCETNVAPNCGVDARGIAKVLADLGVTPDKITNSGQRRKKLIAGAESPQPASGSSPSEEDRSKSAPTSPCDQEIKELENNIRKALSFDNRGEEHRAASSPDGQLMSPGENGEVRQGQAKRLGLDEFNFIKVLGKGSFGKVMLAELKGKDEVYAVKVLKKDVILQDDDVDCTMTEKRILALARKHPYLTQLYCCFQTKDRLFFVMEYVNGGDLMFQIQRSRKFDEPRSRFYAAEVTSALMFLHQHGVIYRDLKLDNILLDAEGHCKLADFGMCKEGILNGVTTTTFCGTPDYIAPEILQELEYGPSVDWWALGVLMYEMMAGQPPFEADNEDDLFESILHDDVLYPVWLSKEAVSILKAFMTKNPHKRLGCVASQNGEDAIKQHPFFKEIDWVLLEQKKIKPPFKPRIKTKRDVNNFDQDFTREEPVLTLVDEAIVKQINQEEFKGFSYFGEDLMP
Protocol: Protocol: Purified PKC-α, βII, γ, δ, or ε (9 ng) was preincubated for 5 minutes at room temperature with the following PKC activators: (A) DHA-CP6, (B) EPA-CP5, (C) AA-CP4, (D) DCP-LA, (E) “other cyclopropaneated and epoxidized fatty acids, alcohols, and methyl esters.” followed by measurement of PKC activity as described under Experimental Procedures. Results are shown below in FIG. 6.

| SMILES | AMES testing result ([1]; summary of Tables 1-4) | ECE activity (ECE; 0.27 nM) | ECE activity (ECE; 0.27 nM, listed as Bryo) | amyloid deposition (5XFAD mice; 30 μg/kg intraperitoneal) | learning and memory deficits (water maze) (5XFAD mice; 30 μg/kg intraperitoneal) | activation of α isoform versus ε isoform (PKC-ε; in vitro measurements with purified PKC isozymes) | AMES testing result [1] | Result (Mutagenic Potential) [1] | ECE activity (ECE; 1 μM) | amyloid deposition (5XFAD mice; 20 mg/m2 tail vein) | learning and memory deficits (water maze) (5XFAD mice; 20 mg/m2 tail vein) | PKC-ε specificity versus PKC-α and PKC-δ (PKC-ε; purified PKC isozymes (9 ng), preincubated 5 minutes at room temperature) |
| --- | --- | --- | --- | --- | --- | --- | --- | --- | --- | --- | --- | --- |
| CCC/C=C/C=C/C(=O)O[C@H]1/C(=C/C(=O)OC)C[C@H]2C[C@H]([C@@H](C)O)OC(=O)C[C@H](O)C[C@@H]3C[C@H](OC(C)=O)C(C)(C)[C@](O)(C[C@@H]4C/C(=C/C(=O)OC)C[C@H](/C=C/C(C)(C)[C@]1(O)O2)O4)O3 [Bryostatin, bryostatin-1] | not mutagenic | sustained increase in ECE activity | increase in ECE activity | reduced amyloid deposition | prevented learning (A, C) and memory deficits (B, D) | activates the α isoform and ε isoform equally | – | – | – | – | – | – |
| CCCCCC1CC1CC1CC1CCCCCCCC(=O)O (stereo not drawn) [DCPLA, 8-[2-(2-pentylcyclopropyl)methyl]-cyclopropaneoctanoic acid] | – | – | – | – | – | – | not mutagenic | Result: Not mutagenic, p > 0.05 | sustained increase in ECE activity | reduced amyloid deposition | prevented learning (A, C) and memory deficits (B, D) | PKC-ε specificity ±15% PKC-α and PKC-δ |
